Data from US20150045551A1, “FUSED AZOLE DERIVATIVE” (TAISHO PHARMACEUTICAL CO., LTD, priority 2012, published 2015).
Structures can show the parent of a compound that is named as a salt.

Biological target: T1, Human V1b receptor (Homo sapiens, UniProt P47901)
T1 sequence (P47901 1-424): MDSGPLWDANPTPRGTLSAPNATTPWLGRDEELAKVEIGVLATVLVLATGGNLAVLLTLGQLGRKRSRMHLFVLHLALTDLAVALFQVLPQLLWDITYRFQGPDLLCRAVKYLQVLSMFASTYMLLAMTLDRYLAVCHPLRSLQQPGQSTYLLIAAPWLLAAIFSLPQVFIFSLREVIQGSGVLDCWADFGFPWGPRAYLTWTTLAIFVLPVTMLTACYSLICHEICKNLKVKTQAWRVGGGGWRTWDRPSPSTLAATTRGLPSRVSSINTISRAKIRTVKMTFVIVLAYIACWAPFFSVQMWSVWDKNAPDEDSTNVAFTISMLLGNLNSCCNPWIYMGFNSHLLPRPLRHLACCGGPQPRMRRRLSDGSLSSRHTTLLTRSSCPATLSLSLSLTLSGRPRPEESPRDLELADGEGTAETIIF
Assay: Binding test for V1b receptor ([3H]AVP displacement, crude membrane preparation)
Parameters: expressed in transfected cells; host or cells: 293FT cells (transient expression)
Conditions: [3H]AVP 0.4 to 1 nmol/L; membranes of 293FT cells transiently expressing human V1b receptor; room temperature, 60 minutes
Description: Human V1b receptor was transiently expressed in 293FT cells, which were then recovered and homogenated in a 15 mmol/L tris-hydrochloric acid buffer (pH 7.4 and containing 2 mmol/L magnesium chloride, 0.3 mmol/L ethylenediaminetetracetic acid, and 1 mmol/L glycol ether diaminetetraacetic acid). The resulting homogenate was centrifuged at 50,000×g at 4 ° C. for 20 minutes. The precipitate was resuspended in a 75 mmol/L tris-hydrochloric acid buffer (pH 7.4 and containing 12.5 mmol/L magnesium chloride, 0.3 mmol/L ethylenediaminetetracetic acid, 1 mmol/L glycol ether diaminetetraacetic acid, and 250 mmol/L sucrose) to give a crude membrane preparation, which was stored at −80° C. until the binding test was initiated. In the binding test, the crude membrane preparation was diluted with a 50 mmol/L tris-hydrochloric acid buffer (pH 7.4 and containing 10 mmol/L magnesium chloride and 0.1% bovine serum albumin) and mixed with each test compound and [^3H]AVP (final concentration: 0.4 to 1 nmol/L), followed by incubation at room temperature for 60 minutes. The test compound was serially diluted with DMSO so that it would have final concentrations of 0.01 nmol/L to […] at the time of mixing. After the incubation, the mixture was suction filtered through a GF/C filter that was preliminarily impregnated with 0.3% polyethyleneimine. The GF/C filter was dried and after adding a scintillator, the residual radioactivity on the filter was measured using TopCount (PerkinElmer Inc.). The radioactivity in the presence of unlabeled AVP at 10 μmol/L was defined as 0%, and the radioactivity in the absence of unlabeled AVP was defined as 100%. A dose-response curve was plotted from radioactivities in the presence of a test compound at various concentrations, and the 50% inhibitory concentration (IC50 value) of the test compound was calculated.

Compound	IC50 [nM]
COc1cc(-c2cc3cc(OCCCN4CCC[C@H]4C)ccc3n2CC(=O)NC(C)C)ccc1F [Example B-16, 2-[2-(4-fluoro-3-methoxyphenyl)-5-{3-[(2R)-2-methylpyrrolidin-1-yl]propoxy}-1H-indol-1-yl]-N-isopropyl acetamide]	166
COc1cc(-c2nc3cc(OCCCN4[C@@H]5CC[C@H]4COC5)ccc3n2CC(=O)NC(C)C)ccc1F [Example A-8, 2-[2-(4-fluoro-3-methoxyphenyl)-5-{3-[(1R,5S)-3-oxa-8-azabicyclo[3.2.1]oct-8-yl]propoxy}-1H-benzimidazol-1-yl]-N-isopropyl acetamide]	2.5
COc1cc(-c2cc3cc(OCCCN4CCCC(O)C4)ccc3n2CC(=O)NC(C)C)ccc1F (stereo not drawn) [Example B-13, 2-{2-(4-fluoro-3-methoxyphenyl)-5-[3-(3-hydroxypiperidin-1-yl)propoxy]-1H-indol-1-yl}-N-isopropyl acetamide]	87.1
COc1cc(-c2cc3cc(OCCCN4CCC(O)C4)ccc3n2CC(=O)NC(C)C)ccc1F (stereo not drawn) [Example B-14, 2-{2-(4-fluoro-3-methoxyphenyl)-5-[3-(3-hydroxypyrrolidin-1-yl)propoxy]-1H-indol-1-yl}-N-isopropyl acetamide]	87.2
COc1cncc(-c2cc3cc(OCCCN4CCCCC4)ccc3n2CC(=O)NC(C)C)c1 [Example B-19, N-isopropyl-2-{2-(5-methoxypyridin-3-yl)-5-[3-(piperidin-1-yl)propoxy]-1H-indol-1-yl}acetamide]	387
CC(C)NC(=O)Cn1c(-c2ccc(F)c(Cl)c2)nc2cc(OCCCCN3CCCCC3)ccc21 [Example A-17, 2-{2-(3-chloro-4-fluorophenyl)-5-[4-(piperidin-1-yl)butoxy]-1H-benzimidazol-1-yl}-N-isopropyl acetamide]	176
CC(C)NC(=O)Cn1c(-c2cccc(Cl)c2)nc2cc(OCCCN3[C@@H]4CC[C@H]3COC4)ccc21 [Example A-4, 2-[2-(3-chlorophenyl)-5-{3-[(1R,5S)-3-oxa-8-azabicyclo[3.2.1]oct-8-yl]propoxy}-1H-benzimidazol-1-yl]-N-isopropyl acetamide]	5
COc1cccc(-c2cc3cc(OCCCN4CCCCC4)ccc3n2CC(=O)NC(C)C)c1 [Example B-20, N-isopropyl-2-{2-(3-methoxyphenyl)-5-[3-(piperidin-1-yl)propoxy]-1H-indol-1-yl}acetamide]	129
COc1cc(-c2nc3ccc(-c4cc(Cl)cc(CN(C)C)c4)cc3n2CC(=O)NC(C)C)ccc1F [Example A-10, 2-[6-{3-chloro-5-[(dimethylamino)methyl]phenyl}-2-(4-fluoro-3-methoxyphenyl)-1H-benzimidazol-1-yl]-N-isopropyl acetamide]	141
CC(C)NC(=O)Cc1c(-c2ccc(F)c(Cl)c2)nc2cc(OCCCN3CCCCC3)ccn12 [Example C-1, 2-{2-(3-chloro-4-fluorophenyl)-7-[3-(piperidin-1-yl)propoxy]imidazo[1,2-a]pyridin-3-yl}-N-isopropyl acetamide]	10.7
CC(C)NC(=O)Cc1nc2cc(OCCCN3CCCCC3)ccn2c1-c1cccc(Cl)c1 [Example F-1, 2-{3-(3-chlorophenyl)-7-[3-(piperidin-1-yl)propoxy]imidazo[1,2-a]pyridin-2-yl}-N-isopropyl acetamide]	82
COc1cccc(-c2nc3cc(OCCCN4CCOCC4)ccc3n2CC(=O)NC(C)C)n1 [Example A-18, N-isopropyl-2-{2-(6-methoxypyridin-2-yl)-5-[3-(morpholin-4-yl)propoxy]-1H-benzimidazol-1-yl}acetamide]	83.6

The next lines start with the values.

IC50 [nM]	Compound
10.4	CC(C)NC(=O)Cn1c(-c2cccc(Cl)c2)cc2cc(OC3CCN(C4CC4)CC3)ccc21 [Example B-3, 2-{2-(3-chlorophenyl)-5-[(1-cyclopropylpiperidin-4-yl)oxy]-1H-indol-1-yl}-N-isopropyl acetamide]
1.1	COc1cc(-c2nc3cc(N4CCC(N5CCCC5)CC4)ccc3n2CC(=O)NC(C)(C)C)ccc1F [Example A-21, N-tert-butyl-2-{2-(4-fluoro-3-methoxyphenyl)-5-[4-(pyrrolidin-1-yl)piperidin-1-yl]-1H-benzimidazol-1-yl}acetamide]
8.6	COc1cc(-c2nc3cc(N4CCCN(C(C)C)CC4)ccc3n2CC(=O)NC(C)(C)C)ccc1F [Example A-20, N-tert-butyl-2-[2-(4-fluoro-3-methoxyphenyl)-5-(4-isopropyl-1,4-diazepan-1-yl)-1H-benzimidazol-1-yl]acetamide]
4.8	COc1cc(-c2nc3cc(OCCCN4CC5(COC5)C4)ccc3n2CC(=O)NC(C)C)ccc1F [Example A-7, 2-{2-(4-fluoro-3-methoxyphenyl)-5-[3-(2-oxa-6-azaspiro[3.3]hept-6-yl)propoxy]-1H-benzimidazol-1-yl}-N-isopropyl acetamide]
15.4	CC(C)NC(=O)Cn1c(-c2ccc(F)c(Cl)c2)nc2cc(N3CCCN(C)CC3)ccc21 [Example A-22, 2-[2-(3-chloro-4-fluorophenyl)-5-(4-methyl-1,4-diazepan-1-yl)-1H-benzimidazol-1-yl]-N-isopropyl acetamide]
7.6	CC(C)NC(=O)Cn1c(-c2ccc(F)c(Cl)c2)nc2cc(OCCCN3CCCCC3)ccc21 [Example A-12, 2-{2-(3-chloro-4-fluorophenyl)-5-[3-(piperidin-1-yl)propoxy]-1H-benzimidazol-1-yl}-N-isopropyl acetamide hydrochloride]
3.4	COc1cc(-c2nc3cc(N4CCCN(C)CC4)ccc3n2CC(=O)NC(C)(C)C)ccc1F [Example A-19, N-tert-butyl-2-[2-(4-fluoro-3-methoxyphenyl)-5-(4-methyl-1,4-diazepan-1-yl)-1H-benzimidazol-1-yl]acetamide]
20.2	CC(C)NC(=O)Cn1c(-c2cccc(Cl)c2)cc2cc(OCCCN3CCC4(CC3)COC4)ccc21 [Example B-10, 2-{2-(3-chlorophenyl)-5-[3-(2-oxa-7-azaspiro[3.5]non-7-yl)propoxy]-1H-indol-1-yl}-N-isopropyl acetamide]
3.8	CC(C)NC(=O)Cn1c(-c2ccc(F)c(Cl)c2)nc2cc(OCCCN3CC4(COC4)C3)ccc21 [Example A-15, 2-{2-(3-chloro-4-fluorophenyl)-5-[3-(2-oxa-6-azaspiro[3.3]hept-6-yl)propoxy]-1H-benzimidazol-1-yl}-N-isopropyl acetamide]
18.4	CC(C)NC(=O)Cn1c(-c2cccc(Cl)c2)cc2cc(OCCCN3CCC(O)CC3)ccc21 [Example B-6, 2-{2-(3-chlorophenyl)-5-[3-(4-hydroxypiperidin-1-yl)propoxy]-1H-indol-1-yl}-N-isopropyl acetamide]
3.1	CN1CCCN(c2ccc3c(c2)nc(-c2ccc(F)c(Cl)c2)n3CC(=O)NC(C)(C)C)CC1 [Example A-23, N-tert-butyl-2-[2-(3-chloro-4-fluorophenyl)-5-(4-methyl-1,4-diazepan-1-yl)-1H-benzimidazol-1-yl]acetamide]
8.3	COc1cc(-c2cc3cc(OCCCN4CC5(COC5)C4)ccc3n2CC(=O)NC(C)C)ccc1F [Example B-15, 2-{2-(4-fluoro-3-methoxyphenyl)-5-[3-(2-oxa-6-azaspiro[3.3]hept-6-yl)propoxy]-1H-indol-1-yl}-N-isopropyl acetamide]
20.1	CC(C)NC(=O)Cn1c(-c2cccc(Cl)c2)cc2cc(CCCCN3CCCCC3)ccc21 [Example B-18, 2-{2-(3-chlorophenyl)-5-[4-(piperidin-1-yl)butyl]-1H-indol-1-yl}-N-isopropyl acetamide]
45.3	COc1cc(-c2cc3cc(OCCCN4CCC(O)CC4)ccc3n2CC(=O)NC(C)C)ccc1F [Example B-12, 2-{2-(4-fluoro-3-methoxyphenyl)-5-[3-(4-hydroxypiperidin-1-yl)propoxy]-1H-indol-1-yl}-N-isopropyl acetamide]
47.1	CC(C)NC(=O)Cn1c(-c2cccc(Cl)c2)cc2nc(OCCCN3CCCCC3)ccc21 [Example B-22, 2-{2-(3-chlorophenyl)-5-[3-(piperidin-1-yl)propoxy]-1H-pyrrolo[3,2-b]pyridin-1-yl}-N-isopropyl acetamide]
